Reference: paper PMC6241247, “Development and Application of an UHPLC-MS/MS Method for Comparative Pharmacokinetic Study of Eight Major Bioactive Components from Yin Chen Hao Tang in Normal and Acute Liver Injured Rats” (Evidence-based Complementary and Alternative Medicine : eCAM, 2018)

What was measured:
[1] = Plasma pharmacokinetics after oral administration of YCHT in model (CCl4-induced acute liver injury) rats, UHPLC-MS/MS; details: for Fr (relative bioavailability): Fr = (AUCmodel/AUCcontrol)∗100%; for Fr (relative bioavailability) / AUC0–t / AUC0–∞: oral YCHT 60 g/kg; for CL/F / Cmax / MRT inf / MRT last / Tmax / half-life: Sprague-Dawley, rat, po, 60 g/kg; for AUC0–t / AUC0–∞: model (CCl4 liver injured) rats, n = 6
Protocol: The quality control (QC) and plasma samples were analyzed by an Agilent 6470 triple quadrupole LC–MS system (Agilent Technologies, Inc., Santa Clara, CA, USA), which consists of an Agilent 1290 Infinity II system connected to a triple quadrupole MS analyzer with an Agilent Jet Stream technologies electrospray ionization (ESI) interface. The Agilent 1290 LC system is equipped with degasser (G7116B), high speed pump (G7120A) and multisampler (G7167B). The samples (2 μL) were injected into the LC system. A MassHunter workstation was applied for LC–MS control and data acquisition.
Chromatographic separation was conducted with a CAPCELL PAK ADME (2.1 mm × 100 mm, 3 μm; Shiseido Co., Ltd., Tokyo, Japan). The mobile phase included 0.1% formic acid (A) and methanol (B), and the flow rate was 0.3 mL/min. Iridoid glycosides and anthraquinones were detected in the isocratic elution, which was kept 80% B for 5.5 min in the negative mode. The others were separated in the positive mode with another gradient program, which was maintained at 45% B for 0.5 min, then increased to 95% B in 2 min, and maintained at 95% B until 4.5 min, and the post time is 2 min.
The optimal parameters for the ESI interface were as follows: nebulizer, 45 psi; dry gas, 10 L/min; dry temp, 350°C; sheath gas, 11 L/min; sheath gas temp, 350°C; capillary voltage, 4000 V (in the positive mode) and 3500 V (in the negative mode); and delta EMV, 200 V. The MS parameters for iridoid glycosides and anthraquinones were improved in the negative mode, and the MS parameters for the other analytes were improved in positive mode.
The animals were randomly divided into the control group (n = 6) and the model group (n = 6): the model rats, i.e., acute liver injury rats, were induced by intraperitoneal injections of CCl4 diluted with olive oil (1:1, v/v) at a dose of 1.5 mL/kg.bw every day for three days, and the rats in the control group were administered with olive oil.
After being thawed at room temperature, 100 μL plasma was put in a 1.5 mL centrifuge tube, and then 100 μL IS solution and 300 μL acetonitrile was added. After the mixture was vortexed for 1 min, it was centrifuged at 12000 rpm for 10 min at 4°C to precipitate the protein. Then the supernatant was transferred to another clean centrifuge tube, and evaporated to dryness under nitrogen stream, the residue was reconstituted in 50 μL methanol-water (1:1, v/v). After centrifuging at 12000 rpm for 10 min at 4°C again, a 2 μL aliquot of supernatant was injected for LC–MS/MS analysis.
The validated method was used for the pharmacokinetic study. Standard diet was withheld over night before oral administration of YCHT, but with free access to water. And YCHT (60 g/kg) was administered to the rats by gastric perfusion, equivalent to 10.09 mg/kg of scoparone, 0.49 mg/kg scopoletin, 17.16 mg/kg of geniposide, 9.86 mg/kg of rhein, 2.66 mg/kg of aloe-emodin, 2.24 mg/kg of chrysophanol, 0.83 mg/kg of emodin, and 0.58 mg/kg of physcion.
A series of blood samples (0.3 mL) were collected from the rats' postorbital venous plexuses at 0 (pre-dose), 5, 10, 15, 30, 45, 60, 90, 120, 240, 480, 600, 720 and 1440 min, and put into heparinized tubes. The heparinized plasma was immediately centrifuged to separate at 3000 g for 10 min and stored at −80°C before experiments. The analytes' concentrations in plasma were determined by LC–MS/MS methods described above.
The plasma concentrations were expressed as arithmetic mean ± standard deviation (SD). And the mean concentration–time curves were calculated and plotted by DAS (version 3.0, Bio Guider Co., Shanghai, China), and the PK parameters consist of elimination half-life (t1/2), area under the plasma concentration-time curve (AUC), and mean residence time (MRT). The maximum plasma concentrations (Cmax) and corresponding peak time (Tmax) were obtained from the observed data directly.

[2] = Plasma pharmacokinetics after oral administration of YCHT in control (normal) rats, UHPLC-MS/MS; format: in vivo, Sprague-Dawley rats; details: for CL/F / Cmax / MRT inf / MRT last / Tmax / half-life: Sprague-Dawley, rat
Description: The validated method was used for the pharmacokinetic study.
P<0.05 represented statistical significance.

P-glycoprotein (P-gp) = tested on: P-glycoprotein (P-gp); design: method as in PMID 25776492, PMID 26121397; details: cited from earlier work
[3] = control rats, oral YCHT 60 g/kg, plasma, n = 6

**Q.** With COc1cc(O)c2c(c1)C(=O)c1cc(C)cc(O)c1C2=O [Physcion] as the compound, how does the “Fr (relative bioavailability)” value [1] read?
**A.** Its value is 213.68%.

**Q.** What about the CL/F ([1]; in vivo) of the same compound?
**A.** Its CL/F is 211 mL/min/kg.

**Q.** What about the Cmax ([1]; in vivo) of the same compound?
**A.** The Cmax was 9.99 ± 2.86 ng/mL.

**Q.** What about the MRT inf ([1]; in vivo) of the same compound?
**A.** Its MRT inf is 5.26 ± 1.3 h.

**Q.** And the MRT last ([1]; in vivo)?
**A.** The MRT last was 4.07 ± 0.4 h.

**Q.** And the Tmax ([1]; in vivo)?
**A.** The Tmax was 155 ± 66.6 min.

**Q.** And the half-life ([1]; in vivo)?
**A.** The half-life was 184 ± 142 min.

**Q.** And the “AUC0–t” value ([1]; plasma)?
**A.** Its value is 44.98 ± 13.92∗∗ ug/L∗h.

**Q.** And the “AUC0–∞” value ([1]; plasma)?
**A.** The value was 48.47 ± 12.74∗∗ ug/L∗h.

**Q.** What about the CL/F ([2]; in vivo, po, 60 g/kg) of the same compound?
**A.** The CL/F was 450 mL/min/kg.

**Q.** What about the Cmax ([2]; in vivo, po, 60 g/kg) of the same compound?
**A.** Its Cmax is 8.45 ± 1.61 ng/mL.

**Q.** And the MRT inf ([2]; in vivo, po, 60 g/kg)?
**A.** The MRT inf was 3.54 ± 0.49 h.

**Q.** And the MRT last ([2]; in vivo, po, 60 g/kg)?
**A.** The MRT last was 2.88 ± 0.25 h.

**Q.** And the Tmax ([2]; in vivo, po, 60 g/kg)?
**A.** Its Tmax is 75 ± 16.2 min.

**Q.** And the half-life ([2]; in vivo, po, 60 g/kg)?
**A.** Its half-life is 159 ± 59.4 min.

**Q.** What about the “AUC0–t” value [2, 3] of the same compound?
**A.** Its value is 21.05 ± 4.04 ug/L∗h.

**Q.** What about the “AUC0–∞” value [2, 3] of the same compound?
**A.** Its value is 22.44 ± 5.54 ug/L∗h.

**Q.** For O=C(O)c1cc(O)c2c(c1)C(=O)c1cccc(O)c1C2=O [Rhein], which “Fr (relative bioavailability)” value [1] is on record?
**A.** Its value is 268.45%.

**Q.** And the CL/F ([1]; in vivo)?
**A.** Its CL/F is 31.2 mL/min/kg.

**Q.** And the Cmax ([1]; in vivo)?
**A.** The Cmax was 1760 ± 140 ng/mL.

**Q.** What about the MRT inf ([1]; in vivo) of the same compound?
**A.** The MRT inf was 4.67 ± 0.65 h.

**Q.** What about the MRT last ([1]; in vivo) of the same compound?
**A.** Its MRT last is 4.38 ± 0.41 h.

**Q.** And the Tmax ([1]; in vivo)?
**A.** Its Tmax is 32.4 ± 11.4 min.

**Q.** What about the half-life ([1]; in vivo) of the same compound?
**A.** Its half-life is 217 ± 118 min.

**Q.** What about the “AUC0–t” value ([1]; plasma) of the same compound?
**A.** Its value is 5453.29 ± 1202.14∗∗ ug/L∗h.

**Q.** And the “AUC0–∞” value ([1]; plasma)?
**A.** The value was 5518.78 ± 1256.46∗∗ ug/L∗h.

**Q.** What about the CL/F ([2]; in vivo, po, 60 g/kg) of the same compound?
**A.** The CL/F was 82 mL/min/kg.

**Q.** And the Cmax ([2]; in vivo, po, 60 g/kg)?
**A.** Its Cmax is 664 ± 50.3 ng/mL.

**Q.** What about the MRT inf ([2]; in vivo, po, 60 g/kg) of the same compound?
**A.** Its MRT inf is 5.38 ± 0.49 h.

**Q.** What about the MRT last ([2]; in vivo, po, 60 g/kg) of the same compound?
**A.** The MRT last was 4.79 ± 0.36 h.

**Q.** What about the Tmax ([2]; in vivo, po, 60 g/kg) of the same compound?
**A.** The Tmax was 19.8 ± 7.8 min.

**Q.** And the half-life ([2]; in vivo, po, 60 g/kg)?
**A.** The half-life was 278 ± 128 min.

**Q.** And the “AUC0–t” value [2, 3]?
**A.** Its value is 2031.40 ± 385.58 ug/L∗h.

**Q.** And the “AUC0–∞” value [2, 3]?
**A.** Its value is 2074.39 ± 387.77 ug/L∗h.

**Q.** Which results are given for COc1cc2ccc(=O)oc2cc1OC [Scoparone]?
**A.** Fr (relative bioavailability) [1]: 227.64%; CL/F ([1]; plasma): 32.7 mL/min/kg; Cmax ([1]; plasma): 1770 ± 107 ng/mL; MRT inf ([1]; plasma): 3.95 ± 0.26 h; MRT last ([1]; plasma): 3.94 ± 0.26 h; Tmax ([1]; plasma): 19.8 ± 7.8 min; half-life ([1]; plasma): 94.8 ± 7.8 min; AUC0–t ([1]; plasma): 5196.54 ± 513.37∗∗ ug/L∗h; AUC0–∞ ([1]; plasma): 5197.06 ± 513.33∗∗ ug/L∗h; AUC in model rats higher than in normal rats ([1]; model vs normal rats, oral YCHT): approximately 2 fold; CL/F ([2]; control rats, oral YCHT 60 g/kg, plasma, n = 6, read-out: CLz/F (converted)): 73.7 mL/min/kg; Cmax ([2]; control rats, oral YCHT 60 g/kg, plasma, n = 6, read-out: Cmax): 939 ± 112 ng/mL; MRT last ([2]; control rats, oral YCHT 60 g/kg, plasma, n = 6, read-out: MRT0–t): 3.19 ± 0.16 h; MRT inf ([2]; control rats, oral YCHT 60 g/kg, plasma, n = 6, read-out: MRT0–∞): 3.51 ± 0.14 h; Tmax ([2]; control rats, oral YCHT 60 g/kg, plasma, n = 6, read-out: Tmax): 32.4 ± 6 min; half-life ([2]; control rats, oral YCHT 60 g/kg, plasma, n = 6, read-out: t 1/2 (converted)): 128 ± 42.6 min; AUC0–t [2, 3]: 2282.77 ± 390.03 ug/L∗h; AUC0–∞ [2, 3]: 2347.92 ± 428.69 ug/L∗h

**Q.** Which “Fr (relative bioavailability)” value [1] does the source give for COc1cc2ccc(=O)oc2cc1O [Scopoletin] here?
**A.** The value was 123.38%.

**Q.** And the CL/F ([1]; in vivo)?
**A.** The CL/F was 1100 mL/min/kg.

**Q.** And the Cmax ([1]; in vivo)?
**A.** The Cmax was 3.34 ± 1.19 ng/mL.

**Q.** And the MRT inf ([1]; in vivo)?
**A.** Its MRT inf is 5.56 ± 0.63 h.

**Q.** And the MRT last ([1]; in vivo)?
**A.** The MRT last was 4.81 ± 0.43 h.

**Q.** What about the Tmax ([1]; in vivo) of the same compound?
**A.** Its Tmax is 7.8 ± 3 min.

**Q.** What about the half-life ([1]; in vivo) of the same compound?
**A.** Its half-life is 132 ± 49.2 min.

**Q.** What about the “AUC0–t” value ([1]; plasma) of the same compound?
**A.** The value was 7.23 ± 1.84 ug/L∗h.

**Q.** What about the “AUC0–∞” value ([1]; plasma) of the same compound?
**A.** The value was 7.83 ± 2.00 ug/L∗h.

**Q.** And the P-gp substrate (P-glycoprotein (P-gp))?
**A.** The P-gp substrate was “not P-gp substrates”.

**Q.** And the CL/F ([2]; in vivo, po, 60 g/kg)?
**A.** The CL/F was 1180 mL/min/kg.

**Q.** What about the Cmax ([2]; in vivo, po, 60 g/kg) of the same compound?
**A.** The Cmax was 3.53 ± 0.67 ng/mL.

**Q.** And the MRT inf ([2]; in vivo, po, 60 g/kg)?
**A.** Its MRT inf is 6.9 ± 4.2 h.

**Q.** And the MRT last ([2]; in vivo, po, 60 g/kg)?
**A.** Its MRT last is 4.4 ± 0.44 h.

**Q.** And the Tmax ([2]; in vivo, po, 60 g/kg)?
**A.** The Tmax was 11.4 ± 2.4 min.

**Q.** And the half-life ([2]; in vivo, po, 60 g/kg)?
**A.** The half-life was 217 ± 231 min.

**Q.** What about the “AUC0–t” value [2, 3] of the same compound?
**A.** The value was 5.86 ± 0.50 ug/L∗h.

**Q.** What about the “AUC0–∞” value [2, 3] of the same compound?
**A.** Its value is 7.41 ± 2.53 ug/L∗h.
